# Assay results taken from patent US20160375042A1, “USE OF CAMPTOTHECIN DERIVATIVE IN PREPARING PHARMACEUTICAL USED FOR TREATING MULTIPLE MYELOMA” (priority 2014, published 2016).
# Several values for one entry are separate records, joined by “and”; a condition that tells them apart may be missing. Identical values can stand only once.
# Assays:
# [1] = Plasma concentration of WQ1001 (HM 910) and its metabolite CPT in rats after intravenous injection; type: in vivo; details: for HM 910 Plasma / HM 910 Plasma (ng/mL): individual rats 1-6
# Protocol: Intravenous administration in rats: six healthy SD rats, weighing 180˜220 g, three males and three females. Fasting for 12 h before dosing, free access to water. 20 mg/kg of HM 910 was administrated by intravenous bolus injection though caudal vein of the rats, with dose-volume volume of 1.0 mL/kg. Blooding 0.25 mL from the animal through the jugular vein, anti-clotting with heparin sodium, adding 0.2% formic acid within the anticoagulant. Blooding at following time points: 5 min, 15 min, 30 min, 45 min, 1 h, 1.5 h, 2 h, 2.5 h, 3 h, 4 h before and after administration. Blood samples were placed on ice after blooding and the plasma was centrifugal separated within 30 minutes (centrifugation conditions: 8000 r/min, 6 minutes, room temperature). The plasma collected was stored at −80° C. for analysis.
# [2] = Water-solubility test of compounds of Formula II and Formula IV; type: physicochemical; details: the C-20 phosphite salt (Formula II) itself, read-out: Water-solubility of Comp of Formula II
# [3] = system: S1 and S1-M1-80 (characteristic expression of ABCG2/BCRP); experiment: Anti-drug resistance test (MTT, resistance index); type: cell-based; details: S1-M1-80 (ABCG2/BCRP) versus S1 cells, 72 h, from IC50
# Protocol: Logarithmic growth phase S1 and S1-M1-80 (characteristic expression of ABCG2/BCRP) were prepared as cell suspension of 2.5×10^4 cells/ml and 6×10^4 cells/ml, and were seeded in into 96-well plates with 0.19 ml/well. After incubating in cell incubator for 24 hours at 37° C., 5% CO2, sample solutions in various concentrations were added at 0.01 ml/well. Stroke-physiological saline solution is used as control well. Each treatment is conducted in 3 parallel wells. The drugs were added and incubated additional 72 h hours. And 5 mg/ml of MTT is added at 0.02 ml/well before four hours of the end the incubation. The culture liquid is removed at the end of incubation. Each well was added 0.1 ml of DMSO and OD values were measured at wavelength of 540 nm and reference wavelength of 655 nm. The experiment was repeated three times. Equation 1 is used to calculate cell growth inhibition rate (IR); and Equation 2 is used to calculate resistance index. Bliss method is used to calculate the 50% inhibitory concentration (IC50).
# [4] = system: human multiple myeloma cells NCI-H929 xenografts; experiment: Tumor inhibitory effect on multiple myeloma cells NCI-H929 xenografts in nude mice; type: in vivo, BALB/c nude mouse; details: for IR By RTV % / IR By TW % / RTV (X ± SD) / TW (X ± SD, g) / Bw (X ± SD, g) end / TV (X ± SD, mm^3) End / Bw (X ± SD, g) initial / TV (X ± SD, mm^3) initial: once every 4 days, intraperitoneal; for IR By RTV % / IR By TW % / RTV (X ± SD) / TW (X ± SD, g): 11th day; for Bw (X ± SD, g) end / TV (X ± SD, mm^3) End: end (11th day after inoculation)
# Protocol: Multiple myeloma cells were routinely passaged in vitro, inoculated in 40 6-7-week-old BALB/c nude mouse, each mouse was subcutaneously injected human multiple myeloma cells NCI-H929 at its right axillary. Weighed after two days. The mice were randomly divided into five groups, eight in each group. Each group was dosed as follows: • i. physiological saline control group • ii. Topotecan positive control group, 2 mg/kg, once every 4 days, intraperitoneal injection • iii. WQ1001, high-dose group, 35 mg/kg, once every 4 days, intraperitoneal injection • iv. WQ1001, middle dose group, 25 mg/kg, once every 4 days, intraperitoneal injectionv. v. WQ1001, low dose group, 18 mg/kg, once every 4 days, intraperitoneal injection
# Body weight(BW) as well as long diameter and short diameter of tumors were measured every two days. Tumor volume was calculated according to the Equation 1. On the 11th day after inoculation, the mice were weighed, long diameter and short diameter of tumors were measured, and relative tumor volume (RTV) was calculated according to Equation 2. Mice were sacrificed by cervical dislocation and the tumor mass was stripped and weighed. Inhibition rate (IR) was calculated according to the Equation 3. RTV and tumor weight (TW) for each group were analyzed through T-test.
# [5] = SD rats, 20 mg/kg HM 910 i.v. bolus, 2.5 hr, 20 mg/kg
structure (smiles),measurement,setting,value
CC[C@@]1(O[PH](=O)[O-])C(=O)OCc2c1cc1n(c2=O)Cc2cc3ccccc3nc2-1.[Na+] [WQ1001],HM 910 Plasma,"[1]; SD rats, 20 mg/kg HM 910 i.v. bolus, 0.083 hr, 20 mg/kg",56652 ng/mL and 31029 ng/mL and 37348 ng/mL and 56722 ng/mL and 45165 ng/mL and 21141 ng/mL
same,HM 910 Plasma,"[1]; SD rats, 20 mg/kg HM 910 i.v. bolus, 0.25 hr, 20 mg/kg",13690 ng/mL and 9484 ng/mL and 7271 ng/mL and 16294 ng/mL and 6761 ng/mL and 5639 ng/mL
same,HM 910 Plasma,"[1]; SD rats, 20 mg/kg HM 910 i.v. bolus, 0.5 hr, 20 mg/kg",2530 ng/mL and 1425 ng/mL and 1633 ng/mL and 4582 ng/mL and 1536 ng/mL and 1628 ng/mL
same,HM 910 Plasma,"[1]; SD rats, 20 mg/kg HM 910 i.v. bolus, 0.75 hr, 20 mg/kg",919 ng/mL and 574 ng/mL and 539 ng/mL and 1578 ng/mL and 617 ng/mL and 607 ng/mL
same,HM 910 Plasma,"[1]; SD rats, 20 mg/kg HM 910 i.v. bolus, 1 hr, 20 mg/kg",499 ng/mL and 259 ng/mL and 240 ng/mL (2×) and 668 ng/mL and 256 ng/mL
same,HM 910 Plasma,"[1]; SD rats, 20 mg/kg HM 910 i.v. bolus, 1.5 hr, 20 mg/kg",97.2 ng/mL and 78.0 ng/mL and 45.2 ng/mL and 162 ng/mL and 59.0 ng/mL and 96.4 ng/mL
same,HM 910 Plasma,"[1]; SD rats, 20 mg/kg HM 910 i.v. bolus, 2 hr, 20 mg/kg",18.3 ng/mL and 25.7 ng/mL and 51.5 ng/mL and 39.5 ng/mL and 20.8 ng/mL and 53.7 ng/mL
same,HM 910 Plasma,[1]; [5],28.2 ng/mL and 17.2 ng/mL and 18.4 ng/mL and 11.0 ng/mL
same,HM 910 Plasma (ng/mL),[1]; [5],BLQ
same,HM 910 Plasma (ng/mL),"[1]; SD rats, 20 mg/kg HM 910 i.v. bolus, 3 hr",BLQ
same,HM 910 Plasma (ng/mL),"[1]; SD rats, 20 mg/kg HM 910 i.v. bolus, 4 hr",BLQ
same,Fate of the tested drug after injection into the rats,"[1]; SD rats, 20 mg/kg i.v. bolus",degraded and the releases camptothecin
same,concentration at 0.083 h,"[1]; both sexes, Sprague-Dawley (SD), rat, plasma, iv, 20 mg/kg, 20 mg/kg HM 910 i.v. bolus, 0.083 hr, mean of rats",41300 ng/mL
same,concentration at 0.25 h,"[1]; both sexes, Sprague-Dawley (SD), rat, plasma, iv, 20 mg/kg, 20 mg/kg HM 910 i.v. bolus, 0.25 hr, mean of rats",9860 ng/mL
same,concentration at 0.5 h,"[1]; both sexes, Sprague-Dawley (SD), rat, plasma, iv, 20 mg/kg, 20 mg/kg HM 910 i.v. bolus, 0.5 hr, mean of rats",2220 ng/mL
same,concentration at 0.75 h,"[1]; both sexes, Sprague-Dawley (SD), rat, plasma, iv, 20 mg/kg, 20 mg/kg HM 910 i.v. bolus, 0.75 hr, mean of rats",806 ng/mL
same,concentration at 1 h,"[1]; both sexes, Sprague-Dawley (SD), rat, plasma, iv, 20 mg/kg, 20 mg/kg HM 910 i.v. bolus, 1 hr, mean of rats",360 ng/mL
same,concentration at 1.5 h,"[1]; both sexes, Sprague-Dawley (SD), rat, plasma, iv, 20 mg/kg, 20 mg/kg HM 910 i.v. bolus, 1.5 hr, mean of rats",89.6 ng/mL
same,concentration at 2 h,"[1]; both sexes, Sprague-Dawley (SD), rat, plasma, iv, 20 mg/kg, 20 mg/kg HM 910 i.v. bolus, 2 hr, mean of rats",34.9 ng/mL
same,concentration at 2.5 h,"[1]; both sexes, Sprague-Dawley (SD), rat, plasma, iv, 20 mg/kg, 20 mg/kg HM 910 i.v. bolus, 2.5 hr, mean of rats",18.7 ng/mL
same,solubility,[2],> 10000 µg/mL
same,Resistance index,[3],6
same,anti-tumor effect on NCI-H929 xenografts in nude mice (in words),[4]; 25 mg/kg,significant anti-tumor effect
same,IR By RTV %,[4]; HM910 l-dose 18 mg/kg,66.5%
same,IR By TW %,[4]; HM910 l-dose 18 mg/kg,72.7%
same,RTV (X ± SD),[4]; HM910 l-dose 18 mg/kg,13.5 ± 11.0
same,"TW (X ± SD, g)",[4]; HM910 l-dose 18 mg/kg,0.41 ± 0.34 g
same,"Bw (X ± SD, g) end",[4]; HM910 l-dose 18 mg/kg,19.2 ± 0.9 g
same,"TV (X ± SD, mm^3) End",[4]; HM910 l-dose 18 mg/kg,653.0 ± 560.4 mm^3
same,"Bw (X ± SD, g) initial",[4]; HM910 l-dose 18 mg/kg,21.0 ± 1.6 g
same,"TV (X ± SD, mm^3) initial",[4]; HM910 l-dose 18 mg/kg,48.6 ± 4.9 mm^3
same,IR By RTV %,[4]; HM910 m-dose 25 mg/kg,75.7%
same,IR By TW %,[4]; HM910 m-dose 25 mg/kg,82.0%
same,RTV (X ± SD),[4]; HM910 m-dose 25 mg/kg,9.80 ± 11.6
same,"TW (X ± SD, g)",[4]; HM910 m-dose 25 mg/kg,0.27 ± 0.35 g
same,"Bw (X ± SD, g) end",[4]; HM910 m-dose 25 mg/kg,18.5 ± 0.7 g
same,"TV (X ± SD, mm^3) End",[4]; HM910 m-dose 25 mg/kg,480.1 ± 570.6 mm^3
same,"Bw (X ± SD, g) initial",[4]; HM910 m-dose 25 mg/kg,17.3 ± 0.7 g
same,"TV (X ± SD, mm^3) initial",[4]; HM910 m-dose 25 mg/kg,48.2 ± 7.8 mm^3
same,IR By RTV %,[4]; HM910 h-dose 35 mg/kg,86.1%
same,IR By TW %,[4]; HM910 h-dose 35 mg/kg,88.2%
same,RTV (X ± SD),[4]; HM910 h-dose 35 mg/kg,5.61 ± 9.74
same,"TW (X ± SD, g)",[4]; HM910 h-dose 35 mg/kg,0.18 ± 0.36 g
same,"Bw (X ± SD, g) end",[4]; HM910 h-dose 35 mg/kg,18.8 ± 0.6 g
same,"TV (X ± SD, mm^3) End",[4]; HM910 h-dose 35 mg/kg,272.3 ± 483.1 mm^3
same,"Bw (X ± SD, g) initial",[4]; HM910 h-dose 35 mg/kg,17.3 ± 0.7 g
same,"TV (X ± SD, mm^3) initial",[4]; HM910 h-dose 35 mg/kg,46.9 ± 8.8 mm^3
same,anti-tumor effect on NCI-H929 xenografts in nude mice (in words),"[4]; high dose, 35 mg/kg",significant anti-tumor effect
same,anti-tumor effect on NCI-H929 xenografts in nude mice (in words),"[4]; low-dose group, 18 mg/kg",significant anti-tumor effect
